The values below come from article PMC9502404, “The Strong Anti-Tumor Effect of Smp24 in Lung Adenocarcinoma A549 Cells Depends on Its Induction of Mitochondrial Dysfunctions and ROS Accumulation” (Toxins, 2022).

Where no end group is shown, it is not given here.

One test relates to MRC-5. As to the kind of experiment: MTT cell viability assay, normal cells. The following applies: time not stated, MRC-5 not described in methods. The format is cell-based. On the technique in general: Tetrazolium dyes change colour on reduction, which living cells bring about.
The subject of the next test is A549 cells. The test is described as follows: MTT cell viability and proliferation assay. The following applies: Smp24 1.25-20 μM, 12, 24 and 48 h tested, time of the IC50 not stated, triplicate, consistent with ref 10. Type of test: cell-based, human. As for the experimental part:
Cellular viability was analyzed via MTT method as reported in our previous study. Briefly, A549 cells (1 × 10^4 cells/well) were cultured in 96-well plates and treated with a gradient concentration of Smp24 (1.25–20 μM) at different time intervals (12, 24, and 48 h). A549 cells were pre-incubated with different inhibitors including 40 μΜ Nec-1, 40 μM Z-DEVD-FMK, 40 μM Z-VAD-FMK, and 2 mM NAC for 30 min before 5 μM Smp24 was incubated with the cells for 12 h to investigate the responsibility of different signaling pathways in the cytotoxic effects of Smp24. After incubation, 10 µL MTT (5 mg/mL) was then added and incubated for 4 h at 37 °C in the dark. Subsequently, 200 µL DMSO was applied into each well after discarding the cell medium, and the cell viability was estimated by calculating the absorbance value at 490 nm via a microplate reader (Tecan Company, Männedorf, Switzerland). The experiments were performed in triplicate.

One may read the IC50 as the concentration that inhibits the measured activity by half. Lower therefore signals greater potency in that assay. For the sequence IWSFLIKAATKLLPSLFGGGKKDS [Smp24], the results for the IC50 with MRC-5 and in the test on A549 cells were roughly 14.7 µM and roughly 4.06 µM, respectively.
